Reference: patent US20150099003A1, “Topiramate Sustained-Release Pharmaceutical Composition, Method for Preparing Same, and Uses Thereof” (Institute of Pharmacology and Toxicology Academy of …, priority 2012, published 2015)

Assays:
[1] = cited from earlier work
[2] = cited from earlier work; remark: listed apart in the source
human plasma protein = settings: plasma concentration range of 0.5-250 μg/ml; decreases with the increase of plasma concentration; cited from earlier work
[3] = Release rate in different dissolution media (artificial gastric fluid, water, artificial intestinal fluid); type: physicochemical; settings: degradation reaction
Method: In order to verify whether acidic, basic solvent media would influence the release rate of the sustained-release pellets of the present invention, 0.1 mol/L HCl (pH1.2) was prepared as artificial gastric fluid, […] phosphate buffer (pH6.8) was prepared as artificial intestinal fluid, and these media and water (500 ml) were used as release media, rotation speed was 100 rpm, 37° C. Samples (5 ml, supplemented with equivalent volume of media at the meantime) were taken at 1, 2, 4, 8, 12, 16, 20, 24 h, filtrated, and the subsequent filtrates were used as test solutions. High performance liquid chromatography (Appendix V D of Part II of Chinese Pharmacopoeia, 2010 Edition) was used, octylsilane-bonded silica gel was used as packing agent, 50% methanol was mobile phase, differential refractive detector was used, flow rate was 1.5 ml per minute. 200 μl of test solution was taken, injected in liquid chromatograph, the peak area of topiramate as main drug was recorded; topiramate was separately taken as control sample and measured by the same method, and accumulative release percentages of drug at different time points were calculated by external standard method.

- Stability of topiramate in pH1.2 artificial gastric fluid [3]: unstable
SMILES: CC1(C)O[C@@H]2[C@@H](CO[C@@]3(COS(N)(=O)=O)OC(C)(C)O[C@@H]23)O1 [Topiramate, 2,3,4,5-bis-O-(1-methylethylene)-β-D-fructopyranose sulfamate]
- Plasma half-life ([1]; human, in vivo): 19 to 25 h
- Clearance for oral administration ([1]; oral administration): 22 to 36 mL/min
- Solubility in organic solvents ([2]; acetone, chloroform, dimethylsulfoxide and ethanol): freely soluble
- Solubility in alkaline solution ([2]; alkaline solution having pH of 9-10 such as sodium hydroxide or sodium phosphate solutions): very freely soluble
- pH value of saturated solution ([2]; saturated solution): 6.3
- Solubility in water ([2]; water, room temperature): about 9.8 mg/mL
- Solubility in water (descriptive) ([2]; water, room temperature): very slightly soluble
- Human plasma protein binding ratio (human plasma protein): 15-41%
